We go through eight compounds from patent US8377422B2, “Carboxamide derivatives having cooling properties” (Givaudan S.A., priority 2007, dated 2013).

Each structure is given as a SMILES string.

The subject of data set [1] is panelists. In words: Cooling intensity: panel tasting of aqueous solutions against menthol at 2 ppm. Type of data set: in vivo, human. Conditions: for Concentration: aqueous solution with cooling intensity similar to or slightly higher than menthol at 2 ppm, tasted by small group of panelists.
Data set [2] relates to panelist. The data set can be described thus: Application in toothpaste: cooling sensation after brushing. Type of data set: in vivo, human. The following applies: toothgel base with 0.10 g of 10% by weight ethanol solution and 0.30 g saccharin; teeth brushed, mouth rinsed with water. How it is done: 0.10 g of (1R,2S,5R)—N-(2-hydroxy-3-phenoxypropyl)-2-isopropyl-5-methylcyclohexane-carboxamide (at 10% by weight solved in ethanol) and 0.30 g saccharin were mixed in a toothgel base.
A piece of the thus prepared toothpaste was put on a toothbrush and a panelist's teeth were brushed. The mouth was rinsed with water and the water spat out. […] The cooling sensation was perceived for over 50 minutes.

`COCCNC(=O)[C@@H]1C[C@H](C)CC[C@H]1C(C)C` [(1R,2S,5R)-2-isopropyl-N-(2-methoxyethyl)-5-methylcyclohexanecarboxamide]: the Concentration in data set [1] came out at 1.0 ppm.
Turning to `CC(C)OCCCNC(=O)[C@@H]1C[C@H](C)CC[C@H]1C(C)C` [(1R,2S,5R)-N-(3-isopropoxypropyl)-2-isopropyl-5-methylcyclohexanecarboxamide], in data set [1], the Concentration came to 0.1 ppm.
The same measure, in the same setting: under `CC(C)[C@@H]1CC[C@@H](C)C[C@H]1C(=O)NCCCOc1ccccn1` [Ex. 2.5, (1R,2S,5R)-2-isopropyl-5-methyl-N-(3-(pyridin-2-yloxy)propyl)cyclohexane-carboxamide] stands 0.02 ppm.
In the case of `CC(C)[C@@H]1CC[C@@H](C)C[C@H]1C(=O)NCCOc1ccccc1` [Ex. 2.7, (1R,2S,5R)-2-isopropyl-5-methyl-N-(2-phenoxyethyl)cyclohexanecarboxamide], the Concentration in data set [1] was found to be 0.01 ppm. Besides, the “cooling intensity relative to prior art compound (1R,2S,5R)-2-isopropyl-N-(2-methoxyethyl)-5-methylcyclohexane-carboxamide” value in data set [1] (compared with the prior art compound) is on record as “about 100 times higher”.
The term melting point denotes the temperature of the solid-liquid transition. `Cc1ccccc1OCCCNC(=O)[C@@H]1C[C@H](C)CC[C@H]1C(C)C` [Example 1, (1R,2S,5R)-2-isopropyl-5-methyl-N-(3-(o-tolyloxy)propyl)cyclohexane-carboxamide] had a melting point of 89.4 to 91.1 °C.
On to `CC(C)[C@@H]1CC[C@@H](C)C[C@H]1C(=O)NCC(O)COc1ccccc1` (stereo partly drawn) [Example 2.2, (1R,2S,5R)—N-(2-hydroxy-3-phenoxypropyl)-2-isopropyl-5-methylcyclohexane-carboxamide], for which, in data set [2], the “cooling sensation felt by the panelist” value was “long lasting cooling sensation” and the “duration of perceived cooling sensation” value is recorded as “over 50 minutes”.
Compound `CC1CCC(C(C)C)C(O)C1` (stereo not shown) [I-Menthol] showed a Concentration in data set [1] of 2.0 ppm.
The same measure, in the same setting: under `CCNC(=O)C1CC(C)CCC1C(C)C` (stereo not shown) [WS-3, N-ethyl p-menthanecarboxamide] stands 1.5 ppm.
